Measured values: patent US20250090699A1, “FAP TARGETING CYCLIC PEPTIDES AND CONJUGATES THEREOF” (Novartis AG, priority 2023, published 2025)
Starred links: 1 amine or outer side, 2 acyl side, 3 side chain; linkers in the order of their positions; H or OH if unused. Non-standard residues stand in square brackets, D forms with d. Residues, ends and D or L forms follow the SMILES beside them. Groups on a side chain read outwards from the residue. *: point of attachment. F(4OEtNHDOTA-Lu) = lutetium complex of (S)-2,2',2''-(10-(2-((2-(4-(2-amino-2-carboxyethyl)phenoxy)ethyl)amino)-2-oxoethyl)-1,4,7,10-tetraazacyclododecane-1,4,7-triyl)triacetic acid (Phe with 4-O-ethylamino-DOTA-Lu), O=C([O-])CN1CCN(CC(=O)[O-])CCN(CC(=O)NCCOc2ccc(C[C@H](N[*:1])C(=O)[*:2])cc2)CCN(CC(=O)[O-])CC1.[Lu+3]; F(4OEtnHNODAGA-Lu) = lutetium complex of 2,2'-(7-(4-((2-(4-((S)-2-amino-2-carboxyethyl)phenoxy)ethyl)amino)-1-carboxy-4-oxobutyl)-1,4,7-triazonane-1,4-diyl)diacetic acid (Phe with 4-O-ethylamino-NODAGA-Lu); K(COpipzaa) = N6-(4-(carboxymethyl)piperazine-1-carbonyl)-L-lysine, O=C(NCCCC[C@H](N[*:1])C(=O)[*:2])N1CCN(CC(=O)[*:3])CC1; DOTA = O=C(O)CN1CCN(CC(=O)O)CCN(CC(=O)*)CCN(CC(=O)O)CC1; Piperazinyl(4-CH2COOH) = O=C(O)CN1CCN(*)CC1; AEF = NCCOc1ccc(C[C@H](N)C(=O)O)cc1; NMeF = CN[C@@H](Cc1ccccc1)C(=O)O; αMeD = C[C@](N)(CC(=O)O)C(=O)O; Ahp(2) = CCCCC[C@H](N)C(=O)O; Cba = N[C@@H](CC1CCC1)C(=O)O; CO = O=C([*:1])[*:2]

What was measured:
mouse FAP [1] = target: T1, mouse FAP (Mus musculus, UniProt P97321); test: Enzymatic FAP competition assay (Z-Gly-Pro-AMC fluorescence), mouse FAP; format: biochemical; conditions: read-out: m. FAP, Enz., IC50
T1 construct: biotinylated His, Avi tag, mouse FAP (26-761, FAP-M82Q5); His; Avi tag (biotinylated); purchased AcroBiosystems FAP-M82Q5
T1 sequence (P97321 26-761): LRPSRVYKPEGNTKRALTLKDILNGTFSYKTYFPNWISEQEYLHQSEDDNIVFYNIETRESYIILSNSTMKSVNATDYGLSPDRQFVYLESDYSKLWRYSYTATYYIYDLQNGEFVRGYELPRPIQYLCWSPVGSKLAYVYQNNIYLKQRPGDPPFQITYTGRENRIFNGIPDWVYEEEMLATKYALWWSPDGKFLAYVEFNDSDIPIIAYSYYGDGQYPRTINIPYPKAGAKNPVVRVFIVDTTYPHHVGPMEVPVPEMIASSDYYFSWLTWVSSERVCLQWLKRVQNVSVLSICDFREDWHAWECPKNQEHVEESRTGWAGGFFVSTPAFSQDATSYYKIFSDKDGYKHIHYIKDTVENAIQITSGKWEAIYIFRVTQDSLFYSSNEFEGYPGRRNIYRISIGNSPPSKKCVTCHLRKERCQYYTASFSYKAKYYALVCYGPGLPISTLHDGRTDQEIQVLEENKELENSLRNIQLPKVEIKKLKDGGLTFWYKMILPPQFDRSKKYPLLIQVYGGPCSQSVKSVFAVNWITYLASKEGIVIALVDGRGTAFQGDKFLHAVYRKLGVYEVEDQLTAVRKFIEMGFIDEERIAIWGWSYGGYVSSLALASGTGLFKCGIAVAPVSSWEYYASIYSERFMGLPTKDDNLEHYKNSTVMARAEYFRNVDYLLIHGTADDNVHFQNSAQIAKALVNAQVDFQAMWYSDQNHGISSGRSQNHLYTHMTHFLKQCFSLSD
Outline: (§1)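 Biotinylated His/Avi-tagged FAP ectodomain (human 26-760, mouse 26-761) at 0.01 nM, preincubated 24 h with peptides (14 concentrations, up to 1 μM) in pH 7.5 phosphate, 150 mM NaCl, 0.05% Tween20, 1% DMSO. Then 50 μM Z-Gly-Pro-AMC, 4 h at 22-24° C; AMC fluorescence (380/460 nm) gave IC50 from duplicate points.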

human FAP = target: T2, human FAP (Homo sapiens, UniProt Q12884); test: Enzymatic FAP competition assay (Z-Gly-Pro-AMC fluorescence), human FAP; format: biochemical; conditions: read-out: h. FAP, Enz., IC50
T2 construct: the biotinylated His, Avi tag, human FAP (26-760, FAP-H82Q6); His; Avi tag (biotinylated); purchased AcroBiosystems FAP-H82Q6
T2 sequence (Q12884 26-760): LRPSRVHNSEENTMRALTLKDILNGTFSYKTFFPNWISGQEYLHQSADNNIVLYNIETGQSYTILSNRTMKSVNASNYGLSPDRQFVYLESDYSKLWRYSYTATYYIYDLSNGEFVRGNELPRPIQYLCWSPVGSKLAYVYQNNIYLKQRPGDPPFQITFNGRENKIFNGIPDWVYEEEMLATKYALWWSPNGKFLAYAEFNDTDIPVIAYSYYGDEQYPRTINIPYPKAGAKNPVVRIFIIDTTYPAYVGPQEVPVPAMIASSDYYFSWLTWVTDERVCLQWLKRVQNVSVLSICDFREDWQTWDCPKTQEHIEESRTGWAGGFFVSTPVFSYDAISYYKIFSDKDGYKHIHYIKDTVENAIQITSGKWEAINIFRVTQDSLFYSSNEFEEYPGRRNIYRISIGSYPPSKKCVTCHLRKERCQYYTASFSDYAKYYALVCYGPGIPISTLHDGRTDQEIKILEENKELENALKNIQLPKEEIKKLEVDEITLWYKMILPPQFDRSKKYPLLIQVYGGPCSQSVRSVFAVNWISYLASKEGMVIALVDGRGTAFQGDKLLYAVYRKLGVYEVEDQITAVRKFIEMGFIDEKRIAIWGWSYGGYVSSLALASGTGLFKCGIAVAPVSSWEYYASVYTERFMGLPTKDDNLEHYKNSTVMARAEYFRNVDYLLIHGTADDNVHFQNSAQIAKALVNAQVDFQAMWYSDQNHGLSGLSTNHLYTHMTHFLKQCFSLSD
Outline: as §1

mouse FAP [2] = target: T1, mouse FAP; test: Surface plasmon resonance (SPR) for peptide affinity, mouse FAP; format: binding
Outline: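 Biotinylated His/Avi-tagged FAP ectodomains (human 26-760, mouse 26-761) captured or immobilized on Biacore sensor chips; peptides run at 25 °C in HBS-EP+ pH 7.6 with 2% DMSO, single-cycle kinetics, 8 concentrations. KD from 1:1 binding-model fit of sensorgrams.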

IC50 (mouse FAP [1])	IC50 (human FAP)	Kd (mouse FAP [2])	Compound
0.38 nM	0.1 nM	0.44 nM	CCCCC[C@@H]1NC(=O)[C@H](Cc2ccc(OCCNC(=O)CN3CCN(CC(=O)O)CCN(CC(=O)O)CCN(CC(=O)O)CC3)cc2)NC(=O)[C@H](Cc2ccccc2)N(C)C(=O)CNC(=O)[C@H](CCCCNC(=O)N2CCN(CC(=O)O)CC2)NC(=O)[C@H]2CCCN2C(=O)[C@H](CC(=O)O)NC(=O)[C@H](Cc2ccc(O)cc2)NC(=O)CNC(=O)[C@H](Cc2c[nH]c3ccccc23)NC1=O [Example B25, K(COpipzaa)-Gly-NMePhe-F(4OEtNHDOTA)-Ahp-Trp-Gly-Tyr-Asp-D-Pro] (cyclo([AEF](DOTA)[Ahp(2)]WGYD[dP]K([CO-Piperazinyl(4-CH2COOH)])G[NMeF]))
0.193 nM	0.034 nM	< 0.017 nM	Gly-Gly-NMePhe-F(4OEtnHNODAGA-Lu)-Ahp-Trp-Gly-Tyr-Asp-D-Pro (cyclo(GG[NMeF][F(4OEtnHNODAGA-Lu)][Ahp(2)]WGYD[dP]); also: Lu complex) [Example C30]
0.127 nM	0.041 nM	0.05 nM	CCCCC[C@@H]1NC(=O)[C@H](Cc2ccc(O)cc2)NC(=O)[C@H](CC2CCC2)NC(=O)CNC(=O)CNC(=O)[C@H]2CCCN2C(=O)[C@H](CC(=O)O)NC(=O)[C@H](Cc2ccc(O)cc2)NC(=O)CNC(=O)[C@H](Cc2c[nH]c3ccccc23)NC1=O [Example A60, Gly-Gly-cBuA-Tyr-Ahp-Trp-Gly-Tyr-Asp-D-Pro] (cyclo([Ahp(2)]WGYD[dP]GG[Cba]Y))
252 nM	76 nM	208 nM	CCCCC[C@@H]1NC(=O)[C@H](Cc2ccc(O)cc2)NC(=O)[C@H](Cc2ccccc2)N(C)C(=O)[C@@H](CO)NC(=O)CNC(=O)[C@H]2CCCN2C(=O)[C@H](CC(=O)O)NC(=O)[C@H](Cc2ccc(O)cc2)NC(=O)CNC(=O)[C@H](Cc2c[nH]c3ccccc23)NC1=O [Example A67, Gly-D-Ser-NMePhe-Tyr-Ahp-Trp-Gly-Tyr-Asp-D-Pro] (cyclo([Ahp(2)]WGYD[dP]G[dS][NMeF]Y))
0.073 nM	0.031 nM	< 0.076 nM	CCCCCC[C@@H]1NC(=O)[C@H](Cc2ccc(CNC(=O)COCCOCCNC(=O)CCC(C(=O)O)N3CCN(CC(=O)O)CCN(CC(=O)O)CC3)cc2)NC(=O)[C@H](Cc2ccccc2)N(C)C(=O)CNC(=O)CNC(=O)[C@H]2CCCN2C(=O)[C@H](CC(=O)O)NC(=O)[C@H](CCCCNC(=O)N2CCN(CC(=O)O)CC2)NC(=O)CNC(=O)[C@H](Cc2c[nH]c3ccccc23)NC1=O (stereo partly drawn) [Example B38, Gly-Gly-NMePhe-F(4amPEG2NHNODAGA)-Aoc-Trp-Gly-K(COpipzaa)-Asp-D-Pro]
8.7 nM	2.6 nM	8.7 nM	CCCCC[C@@H]1NC(=O)[C@H](Cc2ccc(O)cc2)NC(=O)[C@H](Cc2ccccc2)NC(=O)[C@H](CCC(=O)O)NC(=O)[C@H](CCCCN)NC(=O)[C@H]2CCCN2C(=O)[C@H](CC(=O)O)NC(=O)[C@H](Cc2ccc(O)cc2)NC(=O)CNC(=O)[C@H](Cc2c[nH]c3ccccc23)NC1=O [Example A20, Lys-Glu-Phe-Tyr-Ahp-Trp-Gly-Tyr-Asp-D-Pro] (cyclo([Ahp(2)]WGYD[dP]KEFY))
1000 nM	237 nM	> 6000 nM	CCCCC[C@@H]1NC(=O)[C@H](Cc2ccc(O)cc2)NC(=O)[C@H](Cc2ccccc2)N(C)C(=O)CNC(=O)CNC(=O)[C@H]2CCCN2C(=O)[C@](C)(CC(=O)O)NC(=O)[C@H](Cc2ccc(O)cc2)NC(=O)CNC(=O)[C@H](Cc2c[nH]c3ccccc23)NC1=O [Example A72, Gly-Gly-NMePhe-Tyr-Ahp-Trp-Gly-Tyr-aMeD-D-Pro] (cyclo([Ahp(2)]WGY[αMeD][dP]GG[NMeF]Y))
0.072 nM	0.026 nM	0.102 nM	Gly-Gly-NMePhe-F(4OEtNHDOTA-Lu)-Ahp-Trp-Gly-K(COpipzaa)-Asp-D-Pro (cyclo(GG[NMeF][F(4OEtNHDOTA-Lu)][Ahp(2)]WG[K(COpipzaa)]D[dP]); also: Lu complex of DOTA) [Example C27]
